Reference: patent US20220280589A1, “METHOD FOR TREATING ALZHEIMER'S DISEASE BY REGULATING AMINO ACID LEVEL” (SHANGHAI GREEN VALLEY PHARMACEUTICAL CO., LTD., priority 2019, published 2022)
“Also recorded” adds a separate entry of the source.

Legend:
[1] = target: T1, SLC7A5 (Mus musculus, UniProt Q9Z127); assay: Uptake of ^13C-labeled phenylalanine by CD4^+ T cells; type: cell-based; settings: ^13C-phenylalanine 5 mmol/L, 0.5 h
T1 construct: endogenous in cells; host or cells: Primary CD4+ T cells (naive/Th0 and IL-12-induced Th1) from splenocytes of C57BL/6 mice
T1 sequence (Q9Z127 whole entry): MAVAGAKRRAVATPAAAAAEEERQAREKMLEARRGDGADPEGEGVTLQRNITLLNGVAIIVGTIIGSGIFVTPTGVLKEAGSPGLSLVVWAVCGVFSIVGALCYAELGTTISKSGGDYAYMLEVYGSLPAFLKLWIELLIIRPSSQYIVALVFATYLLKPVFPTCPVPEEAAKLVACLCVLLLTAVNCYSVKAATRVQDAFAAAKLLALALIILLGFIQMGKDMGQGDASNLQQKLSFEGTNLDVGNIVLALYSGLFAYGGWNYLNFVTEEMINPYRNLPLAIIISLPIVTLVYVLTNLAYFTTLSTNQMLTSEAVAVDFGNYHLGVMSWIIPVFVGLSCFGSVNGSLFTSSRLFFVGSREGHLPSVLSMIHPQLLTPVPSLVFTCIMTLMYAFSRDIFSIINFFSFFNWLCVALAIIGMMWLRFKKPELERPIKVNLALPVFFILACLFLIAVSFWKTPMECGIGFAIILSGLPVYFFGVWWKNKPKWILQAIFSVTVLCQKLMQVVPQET
T1 sequence (P10852 whole entry partner): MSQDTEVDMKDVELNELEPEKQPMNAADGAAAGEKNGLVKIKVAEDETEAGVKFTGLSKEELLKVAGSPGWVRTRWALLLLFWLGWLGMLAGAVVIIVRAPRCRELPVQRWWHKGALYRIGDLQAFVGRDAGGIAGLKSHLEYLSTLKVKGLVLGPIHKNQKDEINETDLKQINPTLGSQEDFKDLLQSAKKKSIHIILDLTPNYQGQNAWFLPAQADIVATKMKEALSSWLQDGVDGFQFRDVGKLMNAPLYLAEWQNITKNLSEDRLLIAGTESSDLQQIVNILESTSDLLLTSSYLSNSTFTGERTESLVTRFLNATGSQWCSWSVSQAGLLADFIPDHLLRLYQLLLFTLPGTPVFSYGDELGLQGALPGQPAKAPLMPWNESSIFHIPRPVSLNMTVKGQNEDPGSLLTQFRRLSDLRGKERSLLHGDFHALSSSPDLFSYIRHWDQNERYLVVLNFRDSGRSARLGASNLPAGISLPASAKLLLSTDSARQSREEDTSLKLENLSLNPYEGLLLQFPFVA
Procedure: (k) The uptake of phenylalanine by the naïve CD4 T cells. The naïve CD4 T cells were cultured with/without ^13C-labeled phenylalanine for 0.5 h. Mass Spectrometry of phenylalanine-related compounds were tested. ^13C-Phenylalanine is administered at a concentration of 5 mmol/L, and is taken up by an L-type amino acid transporter.
Naive CD4^+ T cells were separated from the splenocytes of 8-month-old C57BL/6 female mice using the Naive CD4^+ T cell Isolation Kit (Stem Cell, Cat No. 19765) and were induced to Th1 differentiation by 20 ng/mL IL-12. After 3 days, a total of 5 ×10^5 cells/well Th1 cells and Th0 cells in 0.5 mL of RPMI-1640 medium were plated into 48-well plates. ^13C-labeled phenylalanine and 5 mM amino transporter inhibitor BCH were added into indicated wells. After 0.5 h, cells were collected and washed twice with ice-cold D-PBS. 50 μL deionized water was added and cells were lysed through freezing and thawing twice at −80° C. The cell lysate was centrifuged at 12000×g for 10 min and ^13 C-labeled phenylalanine in the supernatant was analyzed by Mass spectrometry.

[2] = tested on: 5XFAD transgenic (Tg) mice; assay: Flow cytometry of brain homogenate immune cells (Th1, M1 microglia); type: in vivo, mouse; settings: 6-month-old 5XFAD mice, 50 mg/kg intraperitoneal injection every day for one month, versus vehicle
Procedure: Tg mice and co-housed WT mice (corresponding WT mice generated by mating Tg mice and C57 mice) were housed in the same cage after birth. WT mice (C57) were housed in separate cages to avoid cross-transfer of microbiota. All mice were kept in a 23° C. room with a 12-hour (h) light-dark cycle. Mice were randomly assigned to different groups before treatment. For time course analysis of Tg mice, male and female Tg mice were sacrificed at 2, 3, 5, 7 and 9 months of age. The mouse brain was collected and stained for immune cell analysis and cytokine analysis. […] The brains and feces of the mice were then used for different analyses.
Mice were anesthetized, blood samples were collected into EDTA-containing tubes, and red blood cells were removed using 1×red blood lysis buffer. Before tissue collection, the brains were perfused with ice-cold PBS to avoid sampling the circulating blood immune cells, and the brains were removed, chopped into pieces and dissected according to the introduction of the Adult Brain Dissociation Kit (Miltenyi, Cat No. 130-107-677) using the gentleMACS dissociator (Miltenyi Biotec). The brain homogenate was filtered through a 70-μm cell strainer and centrifuged at 300×g for 5 min at 4° C. […] All samples were counted and adjusted to a density of 2-3×10^6/100 μL, labeled with a Live/Dead kit for 30 min, and then centrifuged at 500×g for 3 min at 4° C. […]

[3] = tested on: naive CD4^+ T cells; assay: In vitro differentiation and proliferation induced by phenylalanine and isoleucine; type: cell-based, mouse; settings: 3 days; for Th1 cell proliferation: amino acid (1 mM) added to CellTrace-stained naive CD4^+ T cell culture; for Th0 cell differentiation into Th1 cells: amino acid (1 mM) added to naive CD4^+ T cell culture
Procedure: (e) The effects of OM1 on the differentiation of naive CD4^+ T cells (Th0 cells) to Th1 cells induced by phenylalanine and isoleucine. Naive CD4^+ T cells were cultured for 3 days with/without OM1 in the presence of phenylalanine (1 mM) or isoleucine (1 mM). The frequency of Th1 (CD4^+IFN-γ^+) cells was tested by flow cytometry. The data are presented as mean±standard error of the mean (mean±sem); n=3 replicates per group. Left, *P<0.05, **P<0.01 by one-way ANOVA (F (2, 6)=15.64). Right, *P<0.05, **P<0.01 by one-way ANOVA (F (2, 6)=10.35).
(f) The effects of OM1 on the proliferation of Th1 cells induced by phenylalanine and isoleucine. The naive CD4^+ T cells were stained with CellTrace and cultured for 3 days with/without OM1 in the presence of phenylalanine (1 mM) and isoleucine (1 mM). The density of CellTrace fluorescence in Th1 (CD4^+IFN-γ^+) cells was tested by flow cytometry (see Methods). The data are presented as mean±standard error of the mean (mean±sem), n=3. *P<0.05, ***P<0.001 by one-way ANOVA (F (4, 9)=28.34).
Naive CD4^+ T cells were separated from the splenocytes of 8-month-old C57BL/6 female mice using the Naive CD4^+ T cell Isolation Kit (Stem Cell, #19765), and the cells were stained with CellTrace (Thermo Fisher, #C34557). A total of 1×10^5 cells/well in 0.2 mL of RPMI-1640 medium were plated in 96-well plates, and the culture medium was supplemented with cytokines or blocking antibodies. Th0: 10 ng/mL mIL-2; Th1:10 ng/mL mIL-2, 5000 ng/mL 11B11. Phenylalanine (final concentration, 2 mmol/L), isoleucine (final concentration, 2 mmol/L) and OM1 (final concentration, 100 μg/mL) were added into the indicated wells, respectively. After incubation at 37° C. in 5% CO2 for 5 days, cells were acquired on a BD Fortessa cytometer, and data were analyzed using FlowJo software.

[4] = tested on: C57 mice; assay: Intraperitoneal injection of phenylalanine and isoleucine, blood Th1 cells by flow cytometry; type: in vivo, mouse; settings: WT (C57) mice, intraperitoneal injection 50 mg/kg for 4 days
Procedure: (g) Blood Th1 cell changes after 4-day intraperitoneal (i.p.) injection of phenylalanine and isoleucine (n=6). ***P<0.001 by one-way ANOVA (F (2, 21)=101.8).
Tg mice and co-housed WT mice (corresponding WT mice generated by mating Tg mice and C57 mice) were housed in the same cage after birth. WT mice (C57) were housed in separate cages to avoid cross-transfer of microbiota. All mice were kept in a 23° C. room with a 12-hour (h) light-dark cycle. Mice were randomly assigned to different groups before treatment. For time course analysis of Tg mice, male and female Tg mice were sacrificed at 2, 3, 5, 7 and 9 months of age. The mouse brain was collected and stained for immune cell analysis and cytokine analysis. Before the mice were sacrificed, feces were collected for gut microbiota analysis. […] All mouse movements that occur in PhenoTyper (HomeCage) are recorded by a computerized tracking system, which calculates the time and number of entrances required to reach 80% of the performance standard (Noldus, Ethovision). […]
Mice were anesthetized, blood samples were collected into EDTA-containing tubes, and red blood cells were removed using 1×red blood lysis buffer. […] All samples were counted and adjusted to a density of 2-3×10^6/100 μL, labeled with a Live/Dead kit for 30 min, and then centrifuged at 500×g for 3 min at 4° C. […]

Structure (SMILES)	uptake of ^13C-labeled phenylalanine by CD4^+ T cells [1]	proportion of pro-inflammatory Th1 cells in the brain [2]	Th1 cell proliferation [3]	Th0 cell differentiation into Th1 cells [3]	Th1 cell count in the blood [4]
Nc1cc(COc2c(Cl)cc(C[C@H](N)C(=O)O)cc2Cl)c2oc(-c3ccccc3)nc2c1 [JPH203]	blocked	effectively inhibits the proportion of Th1 cells in the brain; also recorded: significantly downregulated the proportion of pro-inflammatory Th1 cells in the mouse brain	–	–	–
CC[C@H](C)[C@H](N)C(=O)O [isoleucine]	–	–	increased	increased	increased significantly
N[C@@H](Cc1ccccc1)C(=O)O [phenylalanine]	–	–	increased	increased	increased significantly
